Reference: patent US10023587B2, “Oxabicycloheptanes and oxabicycloheptenes, their preparation and use” (LIXTE BIOTECHNOLOGY, INC., priority 2007, dated 2018)
“Also recorded” adds a separate entry of the source.

Legend:
K-562 cells = assay: CellTiter-Glo assay, K-562; assay type: cell-based; conditions: Homo sapiens, K562; K-562 Leukemia chronic myelo, 72 hr; read-out: IC50 (50% Inhibition of Proliferation)
Experimental: (§1) MDA-MB-231, HT-29, NCI-H460, NCI-H522, NCI-H69, GXF-209, HepG2, OVAR-3, PANC-1, DU-145, LNCAP, HL-60, K-562, and MOLT-4 cell lines were either obtained from the American Type Culture Collection (ATCC; Manassas, Va.), or from the National Cancer Institute (NCI; Frederick, Md.). RPMI-1640 media, L-glutamine dipeptide (HyQ SG-200), and HEPES were obtained from Hyclone (Logan, Utah).
(§2) All cell lines were routinely cultured twice weekly in RPMI-1640 medium supplemented with 2 mM L-glutamine dipeptide, 10 mM HEPES, and 10% FBS.
(§3) The adherent cell lines MDA-MB-231, HT-29, NCI-H460, NCI-H522, GXF-209, HepG2, OVAR-3, PANC-1, DU-145, and LNCAP cells were each seeded into two 96-well plates at 2,500 cells per well in a total volume of 50 uL and incubated in a 37° C. humidified 5% CO2 cell culture incubator overnight. The suspension cell lines NCI-H69, HL-60, K-562, and MOLT-4 were each seeded into two 96-well plates at 10,000 cell per well in a total volume of 50 uL and incubated in a 37° C. humidified 5% CO2 incubator overnight.
(§4) This was followed by making 2× stocks of the final concentrations required in RPMI-1640 medium. […]
(§5) Briefly, plates were removed from the incubator and placed on the bench at room temperatures for 30 minutes. […] Luminescence was then recorded using the PerkinElmer Microbeta scintillation and luminescence counter (Trilux).

GBM cell line U373 = assay: Inhibition of growth of GBM cell line U373 by single agents (cell counts); assay type: cell-based, human; conditions: for Inhibition of growth of cell line U373 (in words): single agent, 7 days
Description: From graphic plots of the glioblastoma multiforme GBM cell line U373 (available from the National Institute of Neurological Disorders and Stroke Molecular Pathogenesis Unit, Building 10, Room 5 D37, National Institutes of Health, 900 Rockville Pike, Bethesda, Md., 20892) as a function of exposure to different doses of drug for 7 days, the concentration of each compound that inhibited brain tumor cell proliferation by 50% (IC50) was estimated.
To identify novel therapeutic targets for the treatment of glioblastoma multiforme (GBM), cantharidin analogues were evaluated for their ability to inhibit growth of glioblastoma multiforme cells. Specifically, GBM cell line U373 was used in evaluations.
The total number of cells is counted in the triplicate cultures at each dose and in controls after 7 days and the average number of cells and the standard deviation is determined.
The amount of inhibition of GBM cell growth is expressed as the proportion of the number of cells in the experimental dishes compared to the number of cells in control dishes containing only the drug vehicle and culture medium. The average percent of control is plotted and bracketed by one standard deviation calculated from the triplicate measurements.
For all cell culture experiments, cells are allowed to grow in the presence or absence of different concentrations of drug or in the presence of the vehicle used to dissolve the drug, PBS for compound 100 and DMSO for compound 102. Cell counts are done in triplicate on day 3 and day 7 and inhibition of growth is expressed as a percentage of the number of cells present in the experimental well divided by the number of cells in a control well.

GXF-209 cells = assay: CellTiter-Glo assay, GXF-209; assay type: cell-based; conditions: Homo sapiens; GXF-209 Stomach, 72 hr; read-out: IC50 (50% Inhibition of Proliferation)
Experimental: as §1, §2, §3, §4, §5

OVCAR-3 cells = assay: CellTiter-Glo assay, OVCAR-3; assay type: cell-based; conditions: Homo sapiens; OVCAR-3 Ovary adenoca, 72 hr; read-out: IC50 (50% Inhibition of Proliferation)
Experimental: as §1, §2, §3, §4, §5

MDA-MB-231 cells = assay: CellTiter-Glo assay, MDA-MB-231; assay type: cell-based; conditions: Homo sapiens; MDA-MB-231 Breast, 72 hr; read-out: IC50 (50% Inhibition of Proliferation)
Experimental: as §1, §2, §3, §4, §5

NCI-H69 cells = assay: CellTiter-Glo assay, NCI-H69; assay type: cell-based; conditions: Homo sapiens; NCI-H69 Lung small cell, 72 hr; read-out: IC50 (50% Inhibition of Proliferation)
Experimental: as §1, §2, §3, §4, §5

HT-29 cells = assay: CellTiter-Glo assay, HT-29; assay type: cell-based; conditions: Homo sapiens; HT-29 Colon, 72 hr; read-out: IC50 (50% Inhibition of Proliferation)
Experimental: as §1, §2, §3, §4, §5

HepG2 cells = assay: CellTiter-Glo assay, HepG2; assay type: cell-based; conditions: Homo sapiens; HepG2 Liver, 72 hr; read-out: IC50 (50% Inhibition of Proliferation)
Experimental: as §1, §2, §3, §4, §5

NCI-H522 cells = assay: CellTiter-Glo assay, NCI-H522; assay type: cell-based; conditions: Homo sapiens; NCI-H522 Lung adenoca, 72 hr; read-out: IC50 (50% Inhibition of Proliferation)
Experimental: as §1, §2, §3, §4, §5

SMILES | IC50 (K-562 cells) [µM] | Inhibition of growth of cell line U373 (in words) (GBM cell line U373) | IC50 (GXF-209 cells) [µM] | IC50 (OVCAR-3 cells) [µM] | IC50 (MDA-MB-231 cells) [µM] | IC50 (NCI-H69 cells) [µM] | IC50 (HT-29 cells) [µM] | IC50 (HepG2 cells) [µM] | IC50 (NCI-H522 cells) [µM] | Inhibitory value against U373, comparison of the two compounds (GBM cell line U373; 10 μM, seven days (FIG. 8)) | IC50 (GBM cell line U373; Homo sapiens, U373 MG, 168 h, U373, exposure for 7 days, estimated from graphic plots (FIG. 1), read-out: concentration that inhibited brain tumor cell proliferation by 50% (IC50)) [µM] | Inhibition of growth of cell line U373 (in words) (GBM cell line U373; listed as compound 100)
CC(C)(C)OC(=O)N1CCN(C(=O)C2C(C(=O)O)[C@H]3CC[C@@H]2O3)CC1 (stereo in doubt) [Compound 102, 4-(3-Carboxy-7oxa-bicyclo[2.2.1]heptane-2-carbonyl)piperazine-1-carboxylic acid tert-butyl ester] | 13.7 | highly potent | 5.3 | 5.1 | 6.6 | 24.6 | 3.6 | 22.1 | 2.2 |  |  | 
CN1CCN(C(=O)C2C(C(=O)O)[C@H]3CC[C@@H]2O3)CC1 (stereo partly drawn) [Compound 100, Endothall 4-Methylpiperazine Monoamide] | 10.7 | potent inhibitor of GBMs in vitro; also recorded: Increasing dosages demonstrate a greater inhibition of growth; also recorded: modest inhibition of growth | 7.9 | 2.9 | 9.5 | 23.9 | 5.3 | 31.6 | 3.4 | identical inhibitory values | 3 | inhibitory activities at low micromolar concentrations; also recorded: dose dependent inhibition
